From US9302999B2, “Substituted triazoles as herbicides” (E. I. DU PONT DE NEMOURS AND COMPANY, priority 2012, dated 2016)

Experiments:
Assay type in all cases: in vivo
corn (Zea mays) [1] = assay: Test A pre-/postemergence: corn
Outline: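 Injury is scored visually on a scale where 0 means no effect and 100 complete control, comparing treated with untreated plants after approximately ten greenhouse days. Both preemergence and postemergence applications are made at the same time.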

[2] = test system: ducksalad (Heteranthera limosa); assay: Test B flooded paddy: ducksalad; conditions: Flood, applied to paddy water at 2-leaf stage, visually evaluated after 13 to 15 days
Outline: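 Plants were grown to the 2-leaf stage, then pots were flooded to 3 cm above the soil and compounds were applied directly into the paddy water. Water depth was held for the whole test; after 13 to 15 days in a greenhouse, injury was visually rated against untreated controls (0 = no effect, 100 = complete control).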

[3] = test system: nutsedge, yellow (yellow nutsedge, Cyperus esculentus); assay: Test C pre-/postemergence: nutsedge, yellow; conditions: Preemergence
Outline: (§1)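 Preemergence on seeds in loam/sand, postemergence on 2–18 cm (1–4-leaf) plants in peat-based medium; compounds in non-phytotoxic solvent with surfactant. After 13–15 days in greenhouse, visual rating versus controls, 0 (no effect) to 100 (complete control).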

[4] = test system: large crabgrass (Digitaria sanguinalis); assay: Test C pre-/postemergence: large crabgrass; conditions: Preemergence
Outline: as §1

corn (Zea mays) [5] = assay: Test C pre-/postemergence: corn; conditions: Preemergence
Outline: as §1

[6] = test system: foxtail, giant (giant foxtail, Setaria faberii); assay: Test C pre-/postemergence: foxtail, giant; conditions: Preemergence
Outline: as §1

kochia (Kochia scoparia) = assay: Test C pre-/postemergence: kochia; conditions: Preemergence
Outline: as §1

[7] = test system: velvetleaf (Abutilon theophrasti); assay: Test C pre-/postemergence: velvetleaf; conditions: Preemergence
Outline: as §1

[8] = test system: ragweed (common ragweed, Ambrosia elation); assay: Test C pre-/postemergence: ragweed; conditions: Preemergence
Outline: as §1

wild oat (Avena fatua) = assay: Test C pre-/postemergence: wild oat; conditions: Preemergence
Outline: as §1

[9] = 31 g ai/ha, scale of 0 to 100, 0 is no effect, 100 is complete control
[10] = 62 g ai/ha, scale of 0 to 100, 0 is no effect, 100 is complete control
[11] = 250 g ai/ha, scale 0 to 100, 0 no effect, 100 complete control
[12] = 125 g ai/ha, scale 0 to 100, 0 no effect, 100 complete control
[13] = Postemergence, 125 g ai/ha, 0 to 100 scale, 0 is no effect, 100 is complete control
[14] = Preemergence, 125 g ai/ha, 0 to 100 scale where 0 is no effect and 100 is complete control
[15] = Preemergence, 500 g ai/ha, 0 to 100 scale (0 no effect, 100 complete control)

| SMILES | Plant response rating, Ducksalad (0 to 100 scale, 0 is no effect, 100 is complete control) ([2]; 250 g ai/ha) | Plant response rating, Nutsedge, Yellow [3, 9] | Plant response rating, Nutsedge, Yellow [3, 10] | Plant response rating, Nutsedge, Yellow [3, 11] | Plant response rating, Crabgrass, Large [4, 9] | Plant response rating, Crabgrass, Large [4, 10] | Plant response rating, Crabgrass, Large [4, 12] | Plant response rating, Crabgrass, Large [4, 11] | Plant response rating, Corn (corn (Zea mays) [5]; [9]) | Plant response rating, Corn (corn (Zea mays) [5]; [10]) | Plant response rating, Corn (corn (Zea mays) [5]; [11]) | Plant response rating, Foxtail, Giant [6, 9] | Plant response rating, Foxtail, Giant [6, 10] | Plant response rating, Foxtail, Giant [6, 12] | Plant response rating, Foxtail, Giant [6, 11] | Plant response rating, Velvetleaf [7, 9] | Plant response rating, Velvetleaf [7, 10] | Plant response rating, Velvetleaf [7, 12] | Plant response rating, Velvetleaf [7, 11] | Plant response rating, Ragweed [8, 9] | other results |
| --- | --- | --- | --- | --- | --- | --- | --- | --- | --- | --- | --- | --- | --- | --- | --- | --- | --- | --- | --- | --- | --- |
| Cc1nn(-c2ccc(F)cc2F)nc1Cc1ccnc(C(F)(F)F)c1 [Compound 54, 4-[[2-(2,4-difluorophenyl)-5-methyl-2H-1,2,3-triazol-4-yl]methyl]-2-(trifluoromethyl)pyridine] | 85 |  |  |  |  |  |  |  |  |  |  |  |  |  |  |  |  |  |  |  | plant injury at 125 g/ha (corn (Zea mays) [1]; Zea mays, post-emergence, 240 h, Postemergence, 125 g ai/ha, 0 to 100 scale, 0 is no effect, 100 is complete control, read-out: Corn plant response rating): 30%; plant injury at 500 g/ha (corn (Zea mays) [1]; Zea mays, post-emergence, 240 h, Postemergence, 500 g ai/ha, visual rating on 0 to 100 scale (0 no effect, 100 complete control), approximately ten days, read-out: Corn plant response rating): 60%; Corn plant response rating (crop injury, 0 = no effect, 100 = complete kill) at 125 g/ha (corn (Zea mays) [1]; Zea mays, pre-emergence, 240 h, Preemergence, 125 g ai/ha, 0 to 100 scale (0 no effect, 100 complete control)): 10%; Corn plant response rating (crop injury, 0 = no effect, 100 = complete kill) at 500 g/ha (corn (Zea mays) [1]; Zea mays, pre-emergence, 240 h, Preemergence, 500 g ai/ha, 0 to 100 scale, 0 is no effect, 100 is complete control): 40% |
| Cc1nn(-c2ccc(F)cc2F)nc1Oc1ccnc(C(F)(F)F)c1 [Compound 146] | 60 | 0 | 0 | 10 | 98 | 100 | 100 | 100 | 0 | 0 | 25 | 40 | 100 | 100 | 100 | 0 | 5 | 15 | 60 | 0 | Plant response rating, Corn (corn (Zea mays) [5]; [12]): 15; Plant response rating, Kochia (kochia (Kochia scoparia); [9]): 30; Plant response rating, Kochia (kochia (Kochia scoparia); [10]): 55; Plant response rating, Kochia (kochia (Kochia scoparia); [12]): 85; Plant response rating, Kochia (kochia (Kochia scoparia); [11]): 85; Plant response rating, Ragweed [8, 10]: 0; Plant response rating, Ragweed [8, 12]: 45; Plant response rating, Ragweed [8, 11]: 45; Plant response rating, Oat, Wild (wild oat (Avena fatua); [9]): 5; Plant response rating, Oat, Wild (wild oat (Avena fatua); [10]): 40; Plant response rating, Oat, Wild (wild oat (Avena fatua); [12]): 85; Plant response rating, Oat, Wild (wild oat (Avena fatua); [11]): 90; Corn plant response rating (corn (Zea mays) [1]; [13]): 20; Corn plant response rating (corn (Zea mays) [1]; Postemergence, 500 g ai/ha, visual rating on 0 to 100 scale (0 no effect, 100 complete control), approximately ten days): 80; Plant response rating, Corn (corn (Zea mays) [1]; [14]): 0; Plant response rating, Corn (corn (Zea mays) [1]; [15]): 10 |
| CCOCc1nn(-c2ccc(F)cc2)nc1Oc1ccnc(C(F)(F)F)c1 [Compound 163] |  | 0 | 0 | 75 | 65 | 100 | 100 | 100 | 10 | 10 | 10 | 40 | 60 | 80 | 100 | 0 | 10 | 20 | 75 | 0 | Plant response rating, Nutsedge, Yellow [3, 12]: 20; Plant response rating, Ragweed [8, 10]: 10; Plant response rating, Ragweed [8, 12]: 20; Plant response rating, Ragweed [8, 11]: 35; Plant response rating, Corn (corn (Zea mays) [1]; [13]): 20; Corn plant response rating (corn (Zea mays) [1]; Postemergence, 500 g ai/ha, 0 to 100 scale, 0 is no effect, 100 is complete control): 30; Plant response rating, Corn (corn (Zea mays) [1]; [14]): 0; Plant response rating, Corn (corn (Zea mays) [1]; [15]): 10; Plant response rating, Ducksalad (0 to 100 scale, 0 is no effect, 100 is complete control) ([2]; 125 g ai/ha): 70 |
